In patent US20220168434A1, “APPLICATION OF TRANSTHYRETIN IN ENTERING EYE AND PREPARING DROP” (YIZHOU (SHANGHAI) BIOLOGICAL MEDICINE CO, LTD., priority 2019, published 2022):
pKd: −log10 of the molar value.

How the values were obtained:
[1] = test system: DR SD rats induced by STZ; assay: DR (diabetic retinopathy) SD rats induced by STZ, eye dropping, EB staining and Trypsin enzymatic hydrolysis of retina; assay type: in vivo; conditions: for eyeball retinal leakage condition (in words) / number of retinal neovascularization (in words): eye dropping twice per day
Method: 8-week-old SD rats weighing 200-250 g was fasted for 12-18 h, and treated with intraperitoneally injection of 2% STZ (60 mg/kg), followed by cutting the tail and collecting blood thereof after 48 h and 72 h. […] DR SD rats were divided into 2 large groups, one is DR SD rats without any treatment (5 rats), and the other is the human TTR eye dropping group (25 rats) dropped with the human TTR prepared in Example 5, each left eye dropped with human TTR (5-20 μmol/L) (normal saline+2% hyaluronic acid) twice a day, and each right eye dropped with saline+2% hyaluronic acid; in addition, another group of normal SD rats (No eye dropping) served as a normal control group (5 rats).
8-week-old SD rats weighing 200-250 g was fasted for 12-18 h, and treated with intraperitoneally injection of 2% STZ (60 mg/kg), followed by cutting the tail and collecting blood thereof after 48 h and 72 h. […]
8-week-old SD rats weighing 200-250 g, was fasted for 12-18 h, and treated with intraperitoneally injection of 2% STZ (60 mg/kg), followed by cutting the tail and collecting blood thereof after 48 h and 72 h. […] Wherein, the left eye was dropped with human TTR prepared in Example 5, or human TTR prepared in Example 5 added with the ligand, specifically with 10 μmol/L human TTR (saline solution+2% hyaluronic acid), 10 μmol/L human TTR (saline solution+2% hyaluronic acid+10 diclofenac sodium), 10 μmol/L human TTR (saline solution+2% hyaluronic acid+5 μmol/L vitamin A+5% Tween 80) and 10 μmol/L human TTR (saline solution+2% hyaluronic acid+5 luteoloside); the right eye was dropped with saline solution+2% hyaluronic acid, or saline solution+2% hyaluronic acid+ligand as control, specifically with saline solution+2% hyaluronic acid, saline solution+2% hyaluronic acid+10 diclofenac sodium, saline solution+2% hyaluronic acid+5 μmol/L vitamin A+5% Tween 80 and saline solution+2% hyaluronic acid+5 μmol/L luteoloside. In addition, there was another group of normal SD rats as a normal control group (5 rats). All SD rats were fed for 3 months, followed by stripping the retina for staining with Evans Blue (EB) to observe the retinal vascular leakage, for Trypsin enzymatic hydrolysis to observe the density of neovascularization.

[2] = test system: AMD C57BL/6 mice induced by laser retinal photocoagulation; assay: AMD (age-related macular degeneration) C57BL/6 mice induced by laser retinal photocoagulation, eye dropping, EB staining and Trypsin enzymatic hydrolysis of retina; assay type: in vivo; conditions: for eyeball retinal leakage condition (in words) / number of retinal neovascularization / neovascularization condition (in words): 10 μmol/L, eye dropping twice per day
From the text: (§1) 9-week-old C57BL/6 mice were subject to retinal photocoagulation by krypton laser (647 nm), with a power of 360 mW, a diameter of 50 μm, a time of 0.05 s, 8 photocoagulation site for each eye, for inducing the neovascularization in choroid, and gradually proceeding to retinal hyperplasia to obtain AMD C57BL/6 mice. AMD C57BL/6 mice were divided into a dropping group and a non-dropping group.
as §1, with “group. […] The animals were sacrificed after eye dropping for 2 weeks, and the retina was stripped for EB staining to observe the retinal leakage conditions, and for Trypsin enzymatic hydrolysis to observe the density of neovascularization.” for “group.”
9-week-old C57BL/6 mice were subject to retinal photocoagulation by krypton laser (647 nm), with a power of 360 mW, a diameter of 50 μm, a time of 0.05 s, 8 photocoagulation site for each eye, for inducing the neovascularization in choroid, and gradually proceeding to retinal hyperplasia to obtain AMD C57BL/6 mice. […] Wherein, the left eye was dropped with human TTR prepared in Example 5, or human TTR prepared in Example 5 added with the excipient, specifically with 10 μmol/L human TTR (saline solution), 10 μmol/L human TTR (saline solution+6 mg/mL sodium carboxymethyl cellulose), 10 μmol/L human TTR (saline solution+6 mg/mL PEG400), 10 μmol/L human TTR (saline solution+0.4 mg/mL dextran 70) and 10 μmol/L human TTR (saline solution+20 mg/mL chondroitin sulfate A sodium salt); the right eye was dropped with saline solution, or saline solution added with the excipient as control, specifically with saline solution, saline solution+6 mg/mL sodium carboxymethyl cellulose, saline solution+6 mg/mL PEG400, saline solution+0.4 mg/mL dextran 70 and saline solution+20 mg/mL chondroitin sulfate A sodium salt). In addition, there was another group of normal […] C57BL/6 mice as a normal control group (5 mice). The animals were sacrificed after eye dropping for 2 weeks, and the retina was stripped for EB staining to observe the retinal leakage conditions, and for Trypsin enzymatic hydrolysis to observe the density of neovascularization.
9-week-old C57BL/6 mice were subject to retinal photocoagulation by krypton laser (647 nm), with a power of 360 mW, a diameter of 50 μm, a time of 0.05 s, 8 photocoagulation site for each eye, for inducing the neovascularization in choroid, and gradually proceeding to retinal hyperplasia to obtain AMD C57BL/6 mice. […] Wherein, the left eye was dropped with human TTR prepared in Example 5, or human TTR prepared in Example 5 added with the ligand, specifically with 10 μmol/L human TTR (saline solution+2% hyaluronic acid), 10 μmol/L human TTR (saline solution+2% hyaluronic acid+10 diclofenac sodium), 10 μmol/L human TTR (saline solution+2% hyaluronic acid+5 μmol/L vitamin A+5% Tween 80) and 10 μmol/L human TTR (saline solution+2% hyaluronic acid+5 μmol/L luteoloside); the right eye was dropped with saline solution+2% hyaluronic acid, or saline solution+2% hyaluronic acid+ligand as control, specifically with saline solution+2% hyaluronic acid, saline solution+2% hyaluronic acid+10 diclofenac sodium, saline solution+2% hyaluronic acid+5 μmol/L vitamin A+5% Tween 80 and saline solution+2% hyaluronic acid+5 luteoloside. In addition, there was another group of normal C57BL/6 mice as a normal control group (5 mice). The animals were sacrificed after eye dropping for 2 weeks, and the retina was stripped for EB staining to observe the retinal leakage conditions, and for Trypsin enzymatic hydrolysis to observe the density of neovascularization.

TTR = target: T1, TTR (Homo sapiens, UniProt P02766); assay: Affinity binding equilibrium dissociation constant Kd of TTR and ligand molecules by nano ITC; conditions: 10 μmol/L TTR solution, 100 μmol/L ligand solution dropped at 1 μL/min, read-out: Affinity binding equilibrium dissociation constants (Kd) of ligand molecule and TTR
T1 construct: made in house; host or cells: E. coli BL21 (DE3)
Method: The affinity binding equilibrium dissociation constant Kd of TTR and each ligand molecule or salts thereof described in Example 24 was determined by nano ITC (TA).

[3] = test system: ROP SD suckling rats induced by hyperbaric oxygen chamber; assay: ROP (retinopathy of prematurity) SD suckling rats induced by hyperbaric oxygen chamber, eye dropping, EB staining of retina; assay type: in vivo
TTR dimer = TTR dimer (Homo sapiens, UniProt P02766); conditions: static co-crystallization model in the PDB database (3CFQ); cited from earlier work
[4] = DR SD rats induced by STZ, 3 months of eye dropping, ligand independently (no TTR) in saline + 2% hyaluronic acid: 10 μmol/L diclofenac sodium/5 μmol/L vitamin A + 5% Tween 80/5 μmol/L luteoloside, right eye
[5] = AMD C57BL/6 mice induced by laser retinal photocoagulation, 2 weeks of eye dropping, ligand independently (no TTR) in saline + 2% hyaluronic acid: 10 μmol/L diclofenac sodium/5 μmol/L vitamin A + 5% Tween 80/5 μmol/L luteoloside, right eye
[6] = ROP SD suckling rats induced by hyperbaric oxygen chamber, 5 days of eye dropping, ligand independently (no TTR) in saline + 2% hyaluronic acid: 10 μmol/L diclofenac sodium/5 μmol/L vitamin A + 5% Tween 80/5 μmol/L luteoloside, right eye
[7] = DR SD rats induced by STZ, 3 months
[8] = DR SD rats, 10 μmol/L in saline solution + 2% hyaluronic acid, eyedropping twice a day, 3 months
[9] = AMD C57BL/6 mice, 10 μmol/L in saline solution + 2% hyaluronic acid, eyedropping twice per day, 2 weeks
[10] = ROP SD suckling rats, 10 μmol/L in saline solution + 2% hyaluronic acid, eyedropping once per day, 5 days

Molecule	pKd (TTR)	No. of retinal neovascularization (10 visual fields) [1, 4]	Retinal leakage area [1, 4]	No. of retinal neovascularization (10 visual fields) [2, 5]	Retinal leakage area [2, 5]	Retinal leakage area [3, 6]	further results
O=C(O)Cc1ccccc1Nc1c(Cl)cccc1Cl [diclofenac]	–	–	–	–	–	–	molecules of ligand that one molecule of TTR dimer can bind (TTR dimer): two molecules
human TTR-CL: human mature TTR losing C terminus-TNPKE, amino acid sequence of SEQ ID NO: 11	–	–	–	–	–	–	eyeball retinal leakage condition (in words) [1, 7]: significantly inhibited; number of retinal neovascularization (in words) [1, 7]: reduced significantly; No. of retinal neovascularization (10 visual fields) [1, 8]: 10 ± 1; Retinal leakage area [1, 8]: 5.7 ± 0.9%; No. of retinal neovascularization (10 visual fields) [2, 9]: 11 ± 2; Retinal leakage area [2, 9]: 4.8 ± 0.6%; eyeball retinal leakage condition (in words) ([2]; AMD C57BL/6 mice, 2 weeks): inhibited significantly; number of retinal neovascularization / neovascularization condition (in words) ([2]; AMD C57BL/6 mice, 2 weeks): reduced significantly; Retinal leakage area [3, 10]: 3.0%
mouse TTR: recombinant mouse TTR, amino acid sequence SEQ ID NO: 10	–	–	–	–	–	–	No. of retinal neovascularization (10 visual fields) [2, 9]: 10 ± 3; Retinal leakage area [2, 9]: 4.2 ± 0.5%; eyeball retinal leakage condition (in words) ([2]; AMD C57BL/6 mice, 2 weeks): inhibited significantly; number of retinal neovascularization / neovascularization condition (in words) ([2]; AMD C57BL/6 mice, 2 weeks): reduced significantly
rat TTR: recombinant rat TTR, amino acid sequence SEQ ID NO: 9	–	–	–	–	–	–	eyeball retinal leakage condition (in words) [1, 7]: significantly inhibited; number of retinal neovascularization (in words) [1, 7]: reduced significantly; No. of retinal neovascularization (10 visual fields) [1, 8]: 13 ± 2; Retinal leakage area [1, 8]: 6.2 ± 0.7%; Retinal leakage area [3, 10]: 3.6%

Continued, in another order:

pKd (TTR)	Molecule	No. of retinal neovascularization (10 visual fields) [1, 4]	Retinal leakage area [1, 4]	No. of retinal neovascularization (10 visual fields) [2, 5]	Retinal leakage area [2, 5]	Retinal leakage area [3, 6]	further results
7.35	O=C(O)Cc1ccccc1Nc1c(Cl)cccc1Cl [Diclofenac sodium, diclofenac sodium, reference compound]	80 ± 9	30.4%	85 ± 6	25.2 ± 3.0%	48.5 ± 5.8%	–
6.89	O=c1cc(-c2ccc(O)c(O)c2)oc2cc(O[C@@H]3O[C@H](CO)[C@@H](O)[C@H](O)[C@H]3O)cc(O)c12 [Luteoloside, luteoloside, reference compound]	79 ± 9	27.6%	82 ± 8	21.3 ± 2.2%	51.2 ± 6.8%	–
7.63	CC1=C(/C=C/C(C)=C/C=C/C(C)=C/CO)C(C)(C)CC=C1 [Vitamin A2, 3-dehydroretinol]	–	–	–	–	–	–
7.64	CC1=C(/C=C/C(C)=C/C=C/C(C)=C/CO)C(C)(C)CCC1 [Vitamin A, retinol, reference compound]	76 ± 8	28.9%	79 ± 10	26.7 ± 3.4%	46.9 ± 4.9%	–
